Reference: patent US10800816B2 (Baxalta GmbH, priority 2012, dated 2020)

Test system: not listed separately
Test: Pharmacokinetics in C57Bl6 mice
Format: in vivo, mouse
Settings: 1 mg/kg peptide content, intravenous, 1 mg/kg

Compound	HL_λ_z [h] (intravenous)
Ac-FQSKpNVHVDGYFERL-Aib-AKLC(PEG)-NH2 [JBT2325] (FQSKPNVHVDGYFERLXAKLC; acetyl, D-Pro, Aib, Cys-PEG 5.3 kD, amide; MOD_RES (1)..(1): N-terminal acetylation; MOD_RES (5)..(5): D-Pro; MOD_RES (17)..(17): Xaa is 2-amino-isobutyric acid; MOD_RES (21)..(21): Cys-PEG; MOD_RES (21)..(21): C-terminal amidation) [PEG 5.3 kD, linear maleimide PEG]	0.16 h
Ac-FQSKpNVHVDGYFERL-Aib-AKLC(PEG)-NH2 [JBT2326] (FQSKPNVHVDGYFERLXAKLC; acetyl, D-Pro, Aib, Cys-PEG 12.1 kD, amide; MOD_RES (1)..(1): N-terminal acetylation; MOD_RES (5)..(5): D-Pro; MOD_RES (17)..(17): Xaa is 2-amino-isobutyric acid; MOD_RES (21)..(21): Cys-PEG; MOD_RES (21)..(21): C-terminal amidation)	0.35 h
Ac-FQSKpNVHVDGYFERL-Aib-AKLC(PEG)-NH2 [JBT2327] (FQSKPNVHVDGYFERLXAKLC; acetyl, D-Pro, Aib, Cys-PEG 21.0 kD, amide; MOD_RES (1)..(1): N-terminal acetylation; MOD_RES (5)..(5): D-Pro; MOD_RES (17)..(17): Xaa is 2-amino-isobutyric acid; MOD_RES (21)..(21): Cys-PEG; MOD_RES (21)..(21): C-terminal amidation) [PEG 21.0 kD, linear maleimide PEG]	4.2 h
Ac-FQSKpNVHVDGYFERL-Aib-AKLC(PEG)-NH2 [JBT2328] (FQSKPNVHVDGYFERLXAKLC; acetyl, D-Pro, Aib, Cys-PEG 29.1 kD, amide; MOD_RES (1)..(1): N-terminal acetylation; MOD_RES (5)..(5): D-Pro; MOD_RES (17)..(17): Xaa is 2-amino-isobutyric acid; MOD_RES (21)..(21): Cys-PEG; MOD_RES (21)..(21): C-terminal amidation) [PEG 29.1 kD, linear maleimide PEG]	10.1 h

Same assay, conditions: 1 mg/kg peptide content, s.c. AUC vs i.v. AUC, 1 mg/kg

Compound	Bioavailability [%] (s.c.)
Ac-FQSKpNVHVDGYFERL-Aib-AKLC(PEG)-NH2 [JBT2325] (FQSKPNVHVDGYFERLXAKLC; acetyl, D-Pro, Aib, Cys-PEG 5.3 kD, amide; MOD_RES (1)..(1): N-terminal acetylation; MOD_RES (5)..(5): D-Pro; MOD_RES (17)..(17): Xaa is 2-amino-isobutyric acid; MOD_RES (21)..(21): Cys-PEG; MOD_RES (21)..(21): C-terminal amidation) [PEG 5.3 kD, linear maleimide PEG]	58.2%
Ac-FQSKpNVHVDGYFERL-Aib-AKLC(PEG)-NH2 [JBT2326] (FQSKPNVHVDGYFERLXAKLC; acetyl, D-Pro, Aib, Cys-PEG 12.1 kD, amide; MOD_RES (1)..(1): N-terminal acetylation; MOD_RES (5)..(5): D-Pro; MOD_RES (17)..(17): Xaa is 2-amino-isobutyric acid; MOD_RES (21)..(21): Cys-PEG; MOD_RES (21)..(21): C-terminal amidation)	76.0%
Ac-FQSKpNVHVDGYFERL-Aib-AKLC(PEG)-NH2 [JBT2327] (FQSKPNVHVDGYFERLXAKLC; acetyl, D-Pro, Aib, Cys-PEG 21.0 kD, amide; MOD_RES (1)..(1): N-terminal acetylation; MOD_RES (5)..(5): D-Pro; MOD_RES (17)..(17): Xaa is 2-amino-isobutyric acid; MOD_RES (21)..(21): Cys-PEG; MOD_RES (21)..(21): C-terminal amidation) [PEG 21.0 kD, linear maleimide PEG]	89.7%
Ac-FQSKpNVHVDGYFERL-Aib-AKLC(PEG)-NH2 [JBT2328] (FQSKPNVHVDGYFERLXAKLC; acetyl, D-Pro, Aib, Cys-PEG 29.1 kD, amide; MOD_RES (1)..(1): N-terminal acetylation; MOD_RES (5)..(5): D-Pro; MOD_RES (17)..(17): Xaa is 2-amino-isobutyric acid; MOD_RES (21)..(21): Cys-PEG; MOD_RES (21)..(21): C-terminal amidation) [PEG 29.1 kD, linear maleimide PEG]	52.0%

Test system: not listed separately
Test: FIGURE 78O
Settings: not given

24 h Mouse Plasma Stability | Mean Remaining [%]	Compound	24 h Human Plasma Stability | Mean Remaining [%]
	CCN1C(=O)CC(SC[C@H](NC(=O)[C@H]2CCCN2C(=O)[C@H](CCCCN)NC(=O)[C@H](CO)NC(=O)[C@H](CCC(N)=O)NC(=O)[C@H](Cc2ccccc2)NC(C)=O)C(=O)N[C@H](C(=O)N[C@@H](Cc2c[nH]cn2)C(=O)N[C@H](C(=O)N[C@@H](CC(=O)O)C(=O)NCC(=O)N[C@@H](Cc2ccc(O)cc2)C(=O)N[C@@H](Cc2ccccc2)C(=O)N[C@@H](CCC(=O)O)C(=O)N[C@@H](CCCNC(=N)N)C(=O)N[C@@H](CC(C)C)C(=O)NC(C)(C)C(=O)N[C@@H](C)C(=O)N[C@@H](CCCCN)C(=O)N[C@@H](CC(C)C)C(N)=O)C(C)C)C(C)C)C1=O (stereo partly shown) [JBT00002397]	10.60%
	CCN1C(=O)CC(SC[C@H](NC(=O)[C@H](Cc2ccccc2)NC(=O)[C@H](Cc2ccc(O)cc2)NC(=O)CNC(=O)[C@H](CC(=O)O)NC(=O)[C@@H](NC(=O)[C@H](Cc2c[nH]cn2)NC(=O)[C@@H](NC(=O)[C@H](CC(N)=O)NC(=O)[C@H]2CCCN2C(=O)[C@H](CCCCN)NC(=O)[C@H](CO)NC(=O)[C@H](CCC(N)=O)NC(=O)[C@H](Cc2ccccc2)NC(C)=O)C(C)C)C(C)C)C(=O)N[C@@H](CCCNC(=N)N)C(=O)N[C@@H](CC(C)C)C(=O)NC(C)(C)C(=O)N[C@@H](C)C(=O)N[C@@H](CCCCN)C(=O)N[C@@H](CC(C)C)C(N)=O)C1=O (stereo partly shown) [JBT00002399]	10.70%
	CCSC1CC(=O)N(CCC(=O)NCCCOCCOCCOCCCNC(=O)CCC(=O)NCCCC[C@H](NC(=O)[C@H](CC(C)C)NC(=O)[C@H](CCCCN)NC(=O)[C@H](C)NC(=O)C(C)(C)NC(=O)[C@H](CC(C)C)NC(=O)[C@H](CCCNC(=N)N)NC(=O)[C@H](CCC(=O)O)NC(=O)[C@H](Cc2ccccc2)NC(=O)[C@H](Cc2ccc(O)cc2)NC(=O)CNC(=O)[C@H](CC(=O)O)NC(=O)[C@@H](NC(=O)[C@H](Cc2c[nH]cn2)NC(=O)[C@@H](NC(=O)[C@H](CC(N)=O)NC(=O)[C@H]2CCCN2C(=O)[C@H](CCCCN)NC(=O)[C@H](CO)NC(=O)[C@H](CCC(N)=O)NC(=O)[C@H](Cc2ccccc2)NC(C)=O)C(C)C)C(C)C)C(N)=O)C1=O (stereo partly shown) [JBT00002400]	60.00%
99.70%	Ac-FQSKp-C(ME-400MA)-VHVDGYFERL-Aib-AKL-NH2 [JBT00002402]	75.30%
92.50%	Ac-FQSKpNVHV-C(ME-400MA)-GYFERL-Aib-AKL-NH2 [JBT00002403]	96.70%

Compound	24 h Mouse Plasma Stability | Mean Remaining [%]	24 h Human Plasma Stability | Mean Remaining [%]
CCN1C(=O)CC(SC[C@H](NC(=O)[C@@H](NC(=O)[C@H](Cc2c[nH]cn2)NC(=O)[C@@H](NC(=O)[C@H](CC(N)=O)NC(=O)[C@H]2CCCN2C(=O)[C@H](CCCCN)NC(=O)[C@H](CO)NC(=O)[C@H](CCC(N)=O)NC(=O)[C@H](Cc2ccccc2)NC(C)=O)C(C)C)C(C)C)C(=O)NCC(=O)N[C@@H](Cc2ccc(O)cc2)C(=O)N[C@@H](Cc2ccccc2)C(=O)N[C@@H](CCC(=O)O)C(=O)N[C@@H](CCCNC(=N)N)C(=O)N[C@@H](CC(C)C)C(=O)NC(C)(C)C(=O)N[C@@H](C)C(=O)N[C@@H](CCCCN)C(=O)N[C@@H](CC(C)C)C(N)=O)C1=O (stereo partly shown) [JBT00002398, Ac-FQSKpNVHV-C(NEM)-GYFERL-Aib-AKL-NH2]	21.60%	39.05%

Test system: not listed separately
Test: FIGURE 78P
Settings: not given

Compound	24 h Human Plasma Stability | Mean Remaining [%]	24 h Mouse Plasma Stability | Mean Remaining [%]
CC(C)C[C@@H]1NC(=O)[C@H](CCCCN)NC(=O)[C@H](C)NC(=O)C(C)(C)NC(=O)[C@H](CC(C)C)NC(=O)[C@H](CCCNC(=N)N)NC(=O)[C@H](CCC(=O)O)NC(=O)[C@H](Cc2ccccc2)NC(=O)[C@H](Cc2ccc(O)cc2)NC(=O)CNC(=O)[C@H](CC(=O)O)NC(=O)[C@H](C(C)C)NC(=O)[C@H](Cc2c[nH]cn2)NC(=O)[C@H](C(C)C)NC(=O)[C@H](CC(N)=O)NC(=O)[C@H]2CCCN2C(=O)[C@H](CCCCN)NC(=O)[C@H](CO)NC(=O)[C@H](CCC(N)=O)NC(=O)[C@H](Cc2ccccc2)NC(=O)CCOCCOCCOCCOCCOCCNC1=O [JBT00002405]	55.90%	
CC(C)C[C@@H]1NC(=O)[C@H](CCCCN)NC(=O)[C@H](C)NC(=O)C(C)(C)NC(=O)[C@H](CC(C)C)NC(=O)[C@H](CCCNC(=N)N)NC(=O)[C@H](CCC(=O)O)NC(=O)[C@H](Cc2ccccc2)NC(=O)[C@H](Cc2ccc(O)cc2)NC(=O)CNC(=O)[C@H](CC(=O)O)NC(=O)[C@H](C(C)C)NC(=O)[C@H](Cc2c[nH]cn2)NC(=O)[C@H](C(C)C)NC(=O)[C@H](CC(N)=O)NC(=O)[C@H]2CCCN2C(=O)[C@H](CCCCN)NC(=O)[C@H](CO)NC(=O)[C@H](CCC(N)=O)NC(=O)[C@H](Cc2ccccc2)NC(=O)CCOCCOCCOCCOCCNC1=O [JBT00002406]	62.80%	38.10%
CC(C)C[C@@H]1NC(=O)[C@H](CCCCN)NC(=O)[C@H](C)NC(=O)C(C)(C)NC(=O)[C@H](CC(C)C)NC(=O)[C@H](CCCNC(=N)N)NC(=O)[C@H](CCC(=O)O)NC(=O)[C@H](Cc2ccccc2)NC(=O)[C@H](Cc2ccc(O)cc2)NC(=O)CNC(=O)[C@H](CC(=O)O)NC(=O)[C@H](C(C)C)NC(=O)[C@H](Cc2c[nH]cn2)NC(=O)[C@H](C(C)C)NC(=O)[C@H](CC(N)=O)NC(=O)[C@H]2CCCN2C(=O)[C@H](CCCCN)NC(=O)[C@H](CO)NC(=O)[C@H](CCC(N)=O)NC(=O)[C@H](Cc2ccccc2)NC(=O)CCOCCOCCOCCNC1=O [JBT00002407]	45.20%	
CC(C)C[C@@H]1NC(=O)[C@H](CCCCN)NC(=O)[C@H](C)NC(=O)C(C)(C)NC(=O)[C@H](CC(C)C)NC(=O)[C@H](CCCNC(=N)N)NC(=O)[C@H](CCC(=O)O)NC(=O)[C@H](Cc2ccccc2)NC(=O)[C@H](Cc2ccc(O)cc2)NC(=O)CNC(=O)[C@H](CC(=O)O)NC(=O)[C@H](C(C)C)NC(=O)[C@H](Cc2c[nH]cn2)NC(=O)[C@H](C(C)C)NC(=O)[C@H](CC(N)=O)NC(=O)[C@H]2CCCN2C(=O)[C@H](CCCCN)NC(=O)[C@H](CO)NC(=O)[C@H](CCC(N)=O)NC(=O)[C@H](Cc2ccccc2)NC(=O)COCCOCCNC1=O [JBT00002408]	61.60%	39.40%
Ac-FQSKpNVHVDGYF-C(ME-400MA)-RL-Aib-AKL-NH2 [JBT00002404]		93.20%
Ac-FQSKpNVHVDGYFERL-Aib-AKLK(Ttds-Maleimid-HSA)- NH2 [JBT00002410]		79.15%

Test system: TFPI
Test: IC50 ELISA | Mean IC50 [nM]
Settings: not given
Source text: Table printed on a drawing sheet, FIGURE 78Z
Head of the field: IC50 ELISA | Mean IC50 [nM]
First copying reader's note: Continued table: the first body row (45.67) belongs to a compound on the preceding sheet, the last row probably continues on the next sheet, and cells with several values list single replicates.

IC50	Compound
3.1 nM	(Hex-FQSKp-Cys(Acm)-VH-Tle-DaYFERL-Aib-AKLC- NH2)2-M2TriO [JBT00002533]
71.1 nM	Hex-FQSKp-Cys(Acm)-VH-Tle-DaYFERL-Aib-AK-OH [JBT00002543]
10.1 nM	Hex-FQSKp-Cys(Acm)-VH-Tle-DaYFERL-Aib-AKL-Ttds- K(Ttds-Myr)--NH2 [JBT00002539]
15.3 nM	Hex-FQSKp-Cys(Acm)-VH-Tle-DaYFERL-Aib-AKLC(ME- 400MA)-NH2 [JBT00002534]
3.99 nM	Hex-FQSKp-Cys(Acm)-VH-Tle-DaYFERL-Aib-AKLK(Ttds- Ac)--NH2 [JBT00002540]
24.3 nM	Hex-FQSKp-Cys(Acm)-VH-Tle-DaYFERL-Aib-AKLK(Ttds- gGlu-Myr)--NH2 [JBT00002541]
